Measured values published in patent publication US9132131B2, “Use of adenosine A3 receptor agonists for treatment of neuropathic pain” (Saint Louis University, priority 2011, dated 2015).

What was measured:
[1] = tested on: RPMI 8226 multiple myeloma cells; assay: MTT cell survival assay, RPMI 8226; type: cell-based, human; conditions: 48 hours
Protocol: Cells were cultured and assayed in DMEM (SKBR3; human breast cancer cells), L15 (SW480; human colon cancer cells) or RPMI […] (RPMI 8226; human multiple myeloma cells) supplemented with heat-denatured 10% FBS and penicillin/streptomycin at 37° C., 0% (SW480) or 5% CO2 (SKBR3 and RPMI 8226), 95% humidity. The antitumor activities of these agents were measured in cells (6.25×10^4 cells/well) cultured overnight in 24-well plates (SKBR3 and SW480; BD Biosciences) or 12 mm×7.5 mm culture tubes (RPMI 8226; BD Biosciences) in complete media. […] Two naïve control wells were included as a control for 100% survival. Cell survival was determined using a MTT (3-(4,5-dimethylthiazol-2-yl)-2,5-diphenyltetrazolium bromide) assay adapted from a previously described assay. Cells were incubated with MTT (500 μg/ml) for 75 minutes at 37° C., 0% or 5% CO2, 95% humidity, removing the media and dissolving the tetrazolium crystals in isopropanol. […] The antitumor effects of IB-MECA alone were determined as % Survivability=(A560-570 nm of chemotherapeutic vehicle+IB-MECA)/(mean A560-570 nm of the naïve control wells)×100. The LD50 of each chemotherapeutic agent+IB-MECA or its vehicle was calculated using three-parameter non-linear analysis using % Survivability=(A560-570 nm of chemotherapeutic+IB-MECA or its vehicle)/(mean A560-570 nm chemotherapeutic vehicle+vehicle of IB-MECA)×100. […]

[2] = subjects receiving the drug; cited from earlier work
[3] = tested on: paclitaxel-induced neuropathic pain; assay: Paclitaxel-induced neuropathic pain (mechano-allodynia, mechano-hyperalgesia); type: in vivo, rats; conditions: 0.2 μmol/kg/d (not shown)
[4] = tested on: acute nociception (hot plate latency); assay: Hot plate assay for acute nociception; type: in vivo, mice; conditions: 0.5 μmol/kg
Protocol: (§1) Tail flick and hot plate assay in mice for acute nociception. The tail flick test, which measures latency(s) of tail withdrawal from a noxious radiant heat source (Ugo Basile; model number 37360) was used to measure thermal nociceptive sensitivity in mice with baseline latencies of 3-5 seconds and a cut-off time of 15 seconds to prevent tissue injury. Tail flick latencies were taken before and at 30, 60 and 120 minutes after i.p. injection of IB-MECA, MRS1898 (0.5 μmol/kg) or its vehicle (0.1% DMSO in saline). For the hot plate test, nociceptive thresholds were determined as previously reported by our group by measuring latencies (in seconds) of mice placed in a transparent glass cylinder on a hot plate maintained at 52° C.. Responses indicative of nociception included intermittent lifting and/or licking of the hindpaws or escape behavior. Hot plate latencies were taken in mice from all groups before and after drug administration. A cut-off latency of 15 seconds was employed to prevent tissue damage.

[5] = tested on: CCI of the sciatic nerve (mechano-allodynia); assay: CCI model of neuropathic pain, mechano-allodynia (von Frey PWT); type: in vivo, mice
Protocol: CCI model of neuropathic pain. CCI to the sciatic nerve of the left hind leg in mice was performed under general anaesthesia using the well-characterized Bennett model. Briefly, mice (weighing 25-30 g at the time of surgery) were anesthetized with 3% isoflurane/100% O2 inhalation and maintained on 2% isoflurane/100% O2 for the duration of surgery. The left thigh was shaved, scrubbed with Nolvasan® and a small incision (1-1.5 cm in length) was made in the middle of the lateral aspect of the left thigh to expose the sciatic nerve. The nerve was loosely ligated around the entire diameter of the nerve at three distinct sites (spaced 1 mm apart) using silk sutures (6.0). The surgical site was closed with a single muscle suture and a skin clip. Pilot studies established that under our experimental conditions peak mechano-allodynia develops by day 5-day 7 (D5-D7) following CCI. Test substances or their vehicles were given subcutaneously (s.c.), intraperitoneally (i.p.) or orally by gavage (0.1 ml) at peak mechano-allodynia (D7).
Behavioral testing. […] The plantar aspect of hindpaws were probed three times with calibrated von Frey filaments (Stoelting, mice: 0.07-2.00 grams; rats: 0.407-26 grams) according to the “up-and-down” method. […] Briefly, each rat was placed in a Plexiglas chamber (28×40×35-cm, wire mesh floor) and after its acclimation, a servo-controlled mechanical stimulus was applied to the plantar surface that exerted a progressively increasing punctate pressure up to 50 grams within 10 seconds. Mechanical threshold was assessed three times at each time point to yield a mean value, reported as PWT (grams). […] Mechano-hyperalgesia was assessed in rats by the Randall and Sellitto paw pressure test using an analgesiometer (Ugo Basile). The nociceptive threshold was defined as the force (grams) at which the rat withdrew its paw (cut off set at 250 grams).
Determining ED50 values. Dose response data were curve-fitted using the least sum of square method by a normalized 4-parameter, variable slope non-linear analysis of the % Reversal of Mechano-allodynia in CCI and % Prevention of Mechano-allodynia or Mechano-hyperalgesia in CIPN using GraphPad Prism (Release 5.03, GraphPad Software, Inc.) from which the ED50 was determined and reported with the 95% confidence interval (95% CI). In the CCI model, the % Reversal of Mechano-allodynia=(PWT1h−PWTD7)/(PWTD0−PWTD7)×100, where PWTD0=Paw Withdrawal Threshold (g) at D0, PWT1h=Paw Withdrawal Threshold (g) at 1 hour after the administration of IB-MECA, gabapentin, amitriptyline, or combinations of IB-MECA with gabapentin or amitriptyline, and PWTD7=Paw Withdrawal Threshold (grams) at D7 prior to drug administration.
Statistical Analysis. Data are expressed as mean±SD for n animals. Behavioral data were analyzed by two-way repeated measures ANOVA with Bonferroni comparisons (full time course studies) or one-way ANOVA Dunnett's comparisons (1 hour behavioral data). The dose response curves were compared to a globally fitted curve using the extra sum-of-squares F-test comparisons to determine whether the data represented distinct curves between treatments. Significant differences were defined at a P<0.05. All statistical analysis was performed using GraphPad Prism (v5.03, GraphPad Software, Inc.).

[6] = tested on: acute nociception (tail flick latency); assay: Tail flick assay for acute nociception; type: in vivo, mice; conditions: IB-MECA, MRS1898 0.5 μmol/kg i.p. at 30, 60, 120 minutes; morphine 35 μmol/kg s.c. positive control
Protocol: as §1

SMILES | LD50 [1] [nM] | incidence of CIPN [2] | effect on paclitaxel-induced neuropathic pain [3] | effect on the hot plate [4] | effect on PWT in contralateral paws ([5]; D7 after CCI, drug alone) | reversal of mechano-allodynia in ipsilateral paws ([5]; single dose D7, IB-MECA 0.2-2, CI-IB-MECA 0.6, MRS1898 0.5 μmol/kg i.p., morphine 0.11-35 s.c., gabapentin 18-584 i.p., amitriptyline 3-191 μmol/kg oral) | effect on tail flick latency [6]
CC(C)C[C@H](NC(=O)[C@H](Cc1ccccc1)NC(=O)c1cnccn1)B(O)O [Bortezomib] | 27 | 36-55% |  |  |  |  | 
CNC(=O)[C@]12C[C@@H]1[C@@H](n1cnc3c(NCc4cccc(I)c4)nc(Cl)nc31)[C@H](O)[C@@H]2O [MRS1898, (1′R,2′R,3′S,4′R,5′S)-4-{2-chloro-6-[(3-iodophenylmethyl)amino]purin-9-yl}-1-(methylaminocarbonyl)-bicyclo[3.1.0]hexane-2,3-diol] |  |  | completely blocked | had no effect | had no effect | reversed mechano-allodynia | lacked effect
